Source: patent publication US8580516B2, “Methods and compositions for direct detection of DNA damage” (University of Chicago, priority 2008, dated 2013)

What was measured:
several cell lines = details: cited from earlier work
[1] = Privat and Sowers 1996; cited from earlier work
mammalian cells = details: via misincorporation and/or mispairing during replication; cited from earlier work
HL60 cells = test: In vitro differentiation of HL60 cells to neutrophils, CD11b flow cytometry; assay type: cell-based; details: 1 μM, five days, FITC anti-human CD11b flow cytometry
Protocol: HL60 cells were grown to confluence (1×10^6 cells/ml) in Roswell Park Memorial Institute media (“RPMI”) 1640 media supplemented with 10% fetal bovine serum, 1% penicillin/streptomycin and 2 mM L-glutamine at 37° C. in 5% CO2 and treated with ethanol carrier, 1 μM ATRA or 1 μM ATRA, 6 nM Vitamin D3 and 30 ng/ml G-CSF for five days.

O=Cc1cn([C@H]2C[C@H](O)[C@@H](CO)O2)c(=O)[nH]c1=O [5-FodU, 5-formyldeoxyuridine]
IC50 (several cell lines; 5-FodU fed to tissue culture cells, several cell lines, read-out: IC50 (toxicity)): ~1000 nM | toxicity in cells lacking thymidine kinase or thymidylate synthetase (several cell lines; cells lacking thymidine kinase or thymidylate synthetase): lost | pKa [1]: 6.8

O=Cc1cn([C@H]2C[C@H](O)[C@@H](COP(=O)(O)OP(=O)(O)OP(=O)(O)O)O2)c(=O)[nH]c1=O [5-FodUTP, 5-formyl deoxyuridine triphosphate]
mutations induced in cells (mammalian cells): induces both transition and transversion mutations

CC1=C(/C=C/C(C)=C/C=C/C(C)=C/C(=O)O)C(C)(C)CCC1 [ATRA, all-trans retinoic acid]
expression of CD11b (HL60 cells): increased expression of CD11b

O=c1ccn([C@@H]2O[C@H](CO)[C@@H](O)[C@H]2O)c(=O)[nH]1 [uridine]
pKa [1]: 9.4
